{"source": "patent US10111865B2", "about": "(priority 2015, dated 2018)", "key": {"[1]": {"assay": "Driving performance (real driving on the road) and cognitive/psychomotor test battery after evening or middle-of-the-night dosing (Example 3)", "format": "in vivo, human", "conditions": "for effect on memory test, body sway, DSST or critical tracking: cognitive and psychomotor test battery before driving test; for effect on driving: driving test at 9 am", "source_text": "The study participants included healthy, male and female subjects between 21 and 45 years of age, with a valid drivers license for at least 3 years.\nFollowing a cognitive and psychomotor test battery, the driving test started at 9 am and lasted for one hour."}, "[2]": {"format": "in vivo, human", "source_text": "There was a washout of 4 days between each treatment period.\nThe study included healthy, male and female subjects between 18 and 45 years of age within 30% of ideal weight. The subjects in Part 1 of the study could be of either gender, but within Part 2 of the study there had to be at least 4 subjects of each gender."}, "[3]": {"conditions": "human, in vivo; for residual effect on Choice Reaction Time / residual effect on Critical Flicker Fusion: po"}, "[4]": {"conditions": "human, in vivo"}, "[5]": {"assay": "Daytime performance after 5-hour sleep restriction, 4-night placebo-controlled study in healthy adults (Example 4)", "format": "in vivo, human", "conditions": "15 mg", "method": "The study included a 2-night single-blind placebo run-in period, a 4-night double-blind treatment period during which sleep was restricted to 5 hours and a 2-night single-blind placebo run-out period. The study included healthy male and female volunteers 18 to <55 years of age.\n2-night run-in period: All patients received placebo\n2-night run-out period: All patients received placebo\nThe primary endpoints included observations based on the Multiple Sleep Latency Test (MSLT) and Slow Wave Sleep (SWS) assessment."}, "[6]": {"conditions": "three-month efficacy study, insomnia; cited from earlier work"}, "[7]": {"conditions": "middle-of-the-night administration (4 am; gaboxadol 15 mg, zolpidem 10 mg)"}}, "note": "Where two headings read alike, the source gives them in different places.", "data": [{"smiles": "CN1CCN(C(=O)OC2c3nccnc3C(=O)N2c2ccc(Cl)cn2)CC1", "note": "(centres unmarked) [zopiclone]", "values": [{"measurement": "effect on memory test, body sway, DSST or critical tracking", "setting": "[1]", "result": "had effect on several of these tests"}, {"measurement": "effect on driving", "setting": "[1]; evening dose (gaboxadol 15 mg, zopiclone 7.5 mg)", "result": "numerically greater effect"}]}, {"smiles": "Oc1noc2c1CCNC2", "note": "[gaboxadol, 4,5,6,7-tetrahydroisoxazolo [5,4-c]pyridine-3-ol]", "values": [{"measurement": "serious adverse experiences", "setting": "[2]; both parts of the study", "result": "no serious adverse experiences"}, {"measurement": "tolerability", "setting": "[2]; single dose intravenous 5 and 10 mg", "result": "generally well tolerated"}, {"measurement": "tolerability", "setting": "[2]; single dose oral 2.5 to 20 mg", "result": "generally well tolerated"}, {"measurement": "residual effects on other measurements (MSLT, DSST, Tracking, Memory tests, Body Sway, Leeds Sleep Evaluation Questionnaire)", "setting": "[3]", "result": "did not show any signs of residual effects"}, {"measurement": "residual effect on Choice Reaction Time", "setting": "[3]", "result": "did not show residual effect"}, {"measurement": "residual effect on Critical Flicker Fusion", "setting": "[3]", "result": "did not show residual effect"}, {"measurement": "Oral clearance (CL/F) compared with clearance after intravenous administration", "setting": "[4]", "result": "of similar magnitude"}, {"measurement": "AUC0-inf, dependence on dose", "setting": "[4]; iv", "result": "increased with increasing dose"}, {"measurement": "Cmax, dependence on dose", "setting": "[4]; iv", "result": "increased with increasing dose"}, {"measurement": "other parameters (CL, t1/2, Vss, fe, and CLR), dependence on dose", "setting": "[4]; iv", "result": "independent of dose"}, {"measurement": "steady-state volume of distribution (Vss)", "setting": "[4]; iv", "result": "moderate"}, {"measurement": "systemic clearance (CL)", "setting": "[4]; iv", "result": "moderate"}, {"measurement": "other parameters (CL/F, tmax, t1/2, fe, and CLR), dependence on dose", "setting": "[4]; po", "result": "independent of dose"}, {"measurement": "AUC0-inf, dependence on dose", "setting": "[4]; po, 20 mg", "result": "increased with increasing dose"}, {"measurement": "Cmax, dependence on dose", "setting": "[4]; po, 20 mg", "result": "increased with increasing dose"}, {"measurement": "MSLT, average difference to placebo (longer)", "setting": "[5]; last two Sleep Restriction days, p=0.047, 1 sided", "result": 2.01, "unit": "min"}, {"measurement": "Karolinska Sleepiness Score (KSS), average difference to placebo (less)", "setting": "[5]; last two Sleep Restriction days, p=0.058, 1 sided, LDA model", "result": 0.68}, {"measurement": "SWS, average difference to placebo (longer)", "setting": "[5]; last two Sleep Restriction nights, p<0.001, 1 sided", "result": 20.53, "unit": "min"}, {"measurement": "biophysiological measures of stress (heart rate variability, cortisol levels, catecholamine levels, body temperature) vs placebo", "setting": "[5]; sleep restriction", "result": "no differences"}, {"measurement": "neurocognitive battery effect sizes (daytime performance)", "setting": "[5]; sleep restriction", "result": "no strong evidence that gaboxadol improves daytime performance"}, {"measurement": "effect on memory test, body sway, DSST or critical tracking", "setting": "[1]", "result": "no effect"}, {"measurement": "tolerability", "setting": "[1]; evening and middle-of-the-night dose 15 mg", "result": "well tolerated"}, {"measurement": "effect on driving compared with blood alcohol", "setting": "[1]; evening dose 15 mg", "result": "less than the effect observed at a 0.05% blood alcohol concentration"}, {"measurement": "most frequent adverse events", "setting": "[1]; evening treatment 15 mg", "result": "headache and somnolence"}, {"measurement": "effect on driving", "setting": "[1]; [7]", "result": "clinically relevant impairing effect"}, {"measurement": "most frequent adverse events", "setting": "[1]; middle-of-the-night treatment 15 mg", "result": "dizziness, nausea and somnolence"}, {"measurement": "effects in sleep onset and sleep maintenance", "setting": "[6]", "result": "failed to show significant effects"}]}, {"smiles": "CCN(CC)CCN1C(=O)CN=C(c2ccccc2F)c2cc(Cl)ccc21", "note": "[Flurazepam]", "values": [{"measurement": "residual effect on Choice Reaction Time", "setting": "[3]", "result": "showed significant effect"}, {"measurement": "residual effect on Critical Flicker Fusion", "setting": "[3]", "result": "showed significant effect"}]}, {"smiles": "Cc1ccc(-c2nc3ccc(C)cn3c2CC(=O)N(C)C)cc1", "note": "[zolpidem]", "values": [{"measurement": "effect on driving", "setting": "[1]; [7]", "result": "numerically greater effect"}]}]}
